Reference: patent US20240390434A1, “PROBIOTIC ENHANCERS AND USES THEREOF” (Blis Technologies Limited, priority 2021, published 2024)

Assays:
Type in all cases: cell-based
S. pneumoniae D39 = assay: Deferred antagonism assay, producer S. salivarius M18; details: Streptococcus pneumoniae, D39, M18, read-out: Size of zone inhibition normalised to control, S. pneumoniae D39
Method: (§1) 1-2 producer strain colonies were transferred from a stock plate into 900 μL of suspension solution using a fresh cotton swab. Following this, suspensions were vortexed, and a sample was inoculated onto solid culture media using a fresh cotton swab. The inoculation was a streak that runs diametrically across the agar plate in a 1.5 cm wide strip. The plate was then incubated. Following incubation all visible colonies were removed by swabbing them from the agar surface. The plates were then treated with chloroform by dispensing 2 ml of chloroform onto 4 cm×4 cm piece of cloth and sealing the inverted agar plate on top for 30 minutes. The plates were then air dried for 30 minutes following chloroforming. 1-2 indicator strain colonies were then transferred from a stock plate into complementary suspension solution. The suspensions were then vortexed, and a sample was inoculated onto the same agar surface. These samples were streaked in a perpendicular direction to the initial producer streak.
(§2) Each indicator streak was prepared with fresh a suspension containing cells from a corresponding stock plate containing the indicator strain of interest. Indicator strains suspension samples were transferred using a fresh cotton swab. Results were measured by qualitatively reviewing the subsequent (if any) sizes of the zones of inhibition (ZOI) of indicator strain colony growth. A positive result is when there is a distinctive reduction or complete inhibition of indicator colony growth on the culture medium.
(§3) CABCa agar plates containing various concentrations of saccharide were prepared according to the methods described in Method 1. Producer strains were transferred from stock agar plates into 900 μL THB using a fresh cotton swab. A plastic spread plater was cut to approximately 1.2 cm width and then dipped into ethanol and left to air dry to ensure sterility. A 100 μL sample of the producer strain suspension was then dispensed onto the agar surface in a straight line running diametrically across the agar surface in (approximately) 20 μL spots. The spots were spaced approximately 1.5 cm apart from each other. The plastic spreader was then used to evenly distribute the spots across the agar surface in a 1.5 cm wide strip. This step was taken to ensure an even producer streak was inoculated onto the agar surface and provided an approximate measure of the initial inoculum concentration. Separate plastic spreaders were used for samples containing different producer strains. The samples were left to soak into the agar surface until there was no visible liquid remaining on the agar surface (approximately 20 minutes). Following producer streak preparations, the deferred antagonism assay protocol was followed as per Method 2. Results were recorded by measuring the size of the zone of inhibition (ZOI) in mm.
(§4) A dose response assay was carried out according to method 3 above, except a 1.2 cm streak was used. For the individual saccharide testing the pH of the producer streak was adjusted after the growth of producer to change the acidic conditions.
(§5) A deferred antagonism assay was conducted using K12 or M18 raw ingredient suspended in Todd Hewitt broth (THB). This was spread as a 1.2 cm streak containing approximately 1-2×10^6 cfu down the middle of a CABCa control or CABCa galactose supplemented test plate. After 18 hrs growth at 37° C. with 5% CO2, bacterial growth was removed, and the pH of the agar in the initial streak was measured and adjusted to a pH of 6.5-7.5 using 0.5M sodium carbonate pH11 before sterilizing the agar surface using chloroform vapor. Bacterial test strains were suspended in i-THB before being swabbed across the plates perpendicular to the initial streak. Plates were incubated for a further 18 hrs incubation at 37° C. with 5% CO2 before measuring (mm) any zones of inhibition for each test strain, […]

[1] = system: S. saprophyticus ATCC 15305; assay: as above; details: Staphylococcus saprophyticus, ATCC15305, M18, read-out: Size of zone inhibition normalised to control, S. saprophyticus ATCC 15305
Method: as §1, §2, §3, §4, §5

S. aureus A222 = assay: as above; details: Staphylococcus aureus, A222, M18, read-out: Size of zone inhibition normalised to control, S. aureus A222
Method: as §1, §2, §3, §4, §5

S. constellatus T29 = assay: as above; details: Streptococcus constellatus, T29, M18, read-out: Size of zone inhibition normalised to control, S. constellatus T29
Method: as §1, §2, §3, §4, §5

S. pyogenes 71-698 = assay: as above; details: Streptococcus pyogenes, 71698, M18, read-out: Size of zone inhibition normalised to control, S. pyogenes 71-698
Method: as §1, §2, §3, §4, §5

[2] = system: halitosis-causing gram-negative bacteria F. nucleatum, P. gingivalis and P. intermedia; assay: Deferred antagonism assay (anaerobic), producer K12; details: 2.5% w/w raffinose; 0.5% w/w galactose; or combination
Method: Method: CABCa agar plates were prepared with or without 2.5% w/w raffinose, 0.5% w/w galactose or a combination of both saccharides by the addition of 0.5% (w/v) calcium carbonate to solid CAB agar in bottles and then melted by autoclaving at 110° C. for 10 mins. Once cooled, filter sterilised solutions of the saccharides or distilled water were added and mixed and then 20 ml pipetted into petri dishes.
A deferred antagonism assay was conducted using K12 or M18 raw ingredient suspended in THB. This was spread as a 1.2 cm streak containing approximately 1-2×10^6 cfu down the middle of a CABCa control or CABCa galactose supplemented test plate. After 18 hrs growth at 37° C., 5% CO2 in air, bacterial growth was removed, and the pH of the agar in the initial streak was measured and adjusted to a pH of 6.5-7.5 using 0.5M sodium carbonate pH11 before sterilizing the agar surface using chloroform vapor. Bacterial test strains were suspended in THB and swabbed across the plates perpendicular to the initial streak and then the plates were incubated at 37° C. in an anaerobic jar containing an anaeroGen sachet for 4 days. Zones of inhibition for each test strain were then measured (mm).

Which zone of inhibition at 0.5 % strength (S. pneumoniae D39; Galactose 0.5% w/w) does the source give for O=C[C@H](O)[C@@H](O)[C@@H](O)[C@H](O)CO [Galactose, D-galactose] here?
Its zone of inhibition at 0.5 % strength is 8 mm.

And the zone of inhibition at 1.25 % strength (S. pneumoniae D39; Galactose 1.25% w/w)?
The zone of inhibition at 1.25 % strength was 5 mm.

What about the zone of inhibition at 1.7 % strength (S. pneumoniae D39; Galactose 1.7% w/w) of the same compound?
Its zone of inhibition at 1.7 % strength is 0 mm.

And the zone of inhibition at 2.5 % strength (S. pneumoniae D39; Galactose 2.5% w/w)?
The zone of inhibition at 2.5 % strength was 6 mm.

What about the zone of inhibition at 3.3 % strength (S. pneumoniae D39; Galactose 3.3% w/w) of the same compound?
The zone of inhibition at 3.3 % strength was 2 mm.

What about the zone of inhibition at 5 % strength (S. pneumoniae D39; Galactose 5% w/w) of the same compound?
The zone of inhibition at 5 % strength was 0 mm.

And the zone of inhibition at 0.5 % strength ([1]; Galactose 0.5% w/w)?
Its zone of inhibition at 0.5 % strength is 5 mm.

What about the zone of inhibition at 1.25 % strength ([1]; Galactose 1.25% w/w) of the same compound?
Its zone of inhibition at 1.25 % strength is 0 mm.

What about the zone of inhibition at 1.7 % strength ([1]; Galactose 1.7% w/w) of the same compound?
The zone of inhibition at 1.7 % strength was 0 mm.

And the zone of inhibition at 2.5 % strength ([1]; Galactose 2.5% w/w)?
Its zone of inhibition at 2.5 % strength is 0 mm.

And the zone of inhibition at 3.3 % strength ([1]; Galactose 3.3% w/w)?
Its zone of inhibition at 3.3 % strength is 0 mm.

And the zone of inhibition at 5 % strength ([1]; Galactose 5% w/w)?
The zone of inhibition at 5 % strength was 0 mm.

What about the zone of inhibition at 0.5 % strength (S. aureus A222; Galactose 0.5% w/w) of the same compound?
Its zone of inhibition at 0.5 % strength is 10 mm.

What about the zone of inhibition at 1.25 % strength (S. aureus A222; Galactose 1.25% w/w) of the same compound?
The zone of inhibition at 1.25 % strength was 6 mm.

And the zone of inhibition at 1.7 % strength (S. aureus A222; Galactose 1.7% w/w)?
The zone of inhibition at 1.7 % strength was 0 mm.

And the zone of inhibition at 2.5 % strength (S. aureus A222; Galactose 2.5% w/w)?
The zone of inhibition at 2.5 % strength was 0 mm.

And the zone of inhibition at 3.3 % strength (S. aureus A222; Galactose 3.3% w/w)?
The zone of inhibition at 3.3 % strength was 6 mm.

What about the zone of inhibition at 5 % strength (S. aureus A222; Galactose 5% w/w) of the same compound?
Its zone of inhibition at 5 % strength is 0 mm.

And the zone of inhibition at 0.5 % strength (S. constellatus T29; Galactose 0.5% w/w)?
The zone of inhibition at 0.5 % strength was 0 mm.

What about the zone of inhibition at 1.25 % strength (S. constellatus T29; Galactose 1.25% w/w) of the same compound?
The zone of inhibition at 1.25 % strength was 8 mm.

What about the zone of inhibition at 1.7 % strength (S. constellatus T29; Galactose 1.7% w/w) of the same compound?
The zone of inhibition at 1.7 % strength was 0 mm.

And the zone of inhibition at 2.5 % strength (S. constellatus T29; Galactose 2.5% w/w)?
Its zone of inhibition at 2.5 % strength is 16 mm.

And the zone of inhibition at 3.3 % strength (S. constellatus T29; Galactose 3.3% w/w)?
The zone of inhibition at 3.3 % strength was 22 mm.

And the zone of inhibition at 5 % strength (S. constellatus T29; Galactose 5% w/w)?
Its zone of inhibition at 5 % strength is 17 mm.

And the zone of inhibition at 0.5 % strength (S. pyogenes 71-698; Galactose 0.5% w/w)?
Its zone of inhibition at 0.5 % strength is 19.5 mm.

And the zone of inhibition at 1.25 % strength (S. pyogenes 71-698; Galactose 1.25% w/w)?
Its zone of inhibition at 1.25 % strength is 13.5 mm.

And the zone of inhibition at 1.7 % strength (S. pyogenes 71-698; Galactose 1.7% w/w)?
Its zone of inhibition at 1.7 % strength is 9.5 mm.

What about the zone of inhibition at 2.5 % strength (S. pyogenes 71-698; Galactose 2.5% w/w) of the same compound?
Its zone of inhibition at 2.5 % strength is 16.5 mm.

And the zone of inhibition at 3.3 % strength (S. pyogenes 71-698; Galactose 3.3% w/w)?
The zone of inhibition at 3.3 % strength was 9.5 mm.

And the zone of inhibition at 5 % strength (S. pyogenes 71-698; Galactose 5% w/w)?
Its zone of inhibition at 5 % strength is 9.5 mm.

What about the “antimicrobial activity of K12 against halitosis-causing gram-negative bacteria” value [2] of the same compound?
Its value is “did not induce antimicrobial activity”.
